This is an account of results in patent EP4603105A1, “PHARMACEUTICAL COMPOSITION CONTAINING CYCLIC COMPOUND HAVING SELECTIVE KRAS INHIBITORY EFFECT AGAINST HRAS AND NRAS” (CHUGAI SEIYAKU KABUSHIKI KAISHA, priority 2022, dated 2024).

pIC50: −log10 of the molar value.

The target in experiment [1] is GDP-bound NRAS wild-type protein (Homo sapiens, UniProt P01111). As to the kind of experiment: Binding to NRAS by surface plasmon resonance (SPR), KD and KD ratio to KRAS. To be noted: ratio of KD for GDP-bound NRAS wild-type protein to KD for KRAS. A digest of the protocol:
(§1)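 Biotinylated GDP-bound RAS was captured at about 100–300 RU. Running buffer: HBS pH 7.4, 10 mM MgCl2, 10 µM GDP, 1 mM DTT, 0.01% Tween 20, 4% DMSO.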
(Surface plasmon resonance follows binding to a sensor surface in real time, without labels.)

The next experiment addresses HRAS wild-type protein (Homo sapiens, UniProt P01112). As to the kind of experiment: Binding to HRAS by surface plasmon resonance (SPR), KD and KD ratio to KRAS. To be noted: ratio of KD for HRAS wild-type protein to KD for KRAS. The gist of the method: as §1
Experiment [2] deals with human lung cancer strain NCI-H441. It counts as cell-based. The gist of the method:
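Step one: dispense the test compound in serial DMSO dilutions. Step three: add the reagent and measure […].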

Sequence of GDP-bound NRAS wild-type protein (P01111 whole entry): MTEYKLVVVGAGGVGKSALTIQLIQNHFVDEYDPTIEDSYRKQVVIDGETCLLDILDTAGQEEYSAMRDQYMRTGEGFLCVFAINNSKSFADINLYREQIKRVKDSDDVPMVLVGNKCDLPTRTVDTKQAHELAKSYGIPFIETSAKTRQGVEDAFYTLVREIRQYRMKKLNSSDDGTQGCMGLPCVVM
Sequence of HRAS wild-type protein (P01112 whole entry): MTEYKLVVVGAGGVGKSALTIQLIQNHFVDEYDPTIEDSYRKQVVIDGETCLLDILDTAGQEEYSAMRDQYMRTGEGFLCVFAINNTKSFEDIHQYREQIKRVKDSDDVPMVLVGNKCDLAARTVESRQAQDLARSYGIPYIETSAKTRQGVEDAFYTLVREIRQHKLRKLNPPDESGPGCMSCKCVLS

For orientation: pIC50 means the IC50 on a negative log10 scale, so that one unit is a factor of ten. Read a high pIC50 as a small IC50. On to `CCO[C@@H]1C[C@H]2C(=O)NC3(CCC3)C(=O)N(C)[C@@H](C3CCCC3)C(=O)N(C)[C@H](C(=O)N3CCC3)CC(=O)N(C)[C@@H](CC)C(=O)N[C@@H]([C@@H](C)CC)C(=O)N(C)CC(=O)N(C)[C@H]3C/C=C\CCN(C3=O)[C@@H](Cc3ccc(C(F)(F)F)cc3)C(=O)N(C)CC(=O)N[C@@H](CCc3cc(F)c(C(F)(F)F)c(F)c3)C(=O)N2C1` [PP1091], for which the “NRAS /KRAS” value in experiment [1] was “A (a compound having 10 or more and less than 20 is denoted as A)”. On HRAS wild-type protein, the “HRAS /KRAS” value is “B (a compound having 3 or more and less than 10 is denoted as B)”. Moreover, the negative logarithm of the IC50 (pIC50) in experiment [2] was 7.75.

Consider `CCO[C@@H]1C[C@H]2C(=O)NC3(CCC3)C(=O)N(C)[C@@H](C3CCCC3)C(=O)N(C)[C@H](C(=O)N3CCOCC3)CC(=O)N(C)[C@@H](CC)C(=O)N[C@@H]([C@@H](C)CC)C(=O)N(C)CC(=O)N(C)[C@H]3C/C=C\CCN(C3=O)[C@@H](Cc3ccc(C(F)(F)F)cc3)C(=O)N(C)CC(=O)N[C@@H](CCc3cc(F)c(C(F)(F)F)c(F)c3)C(=O)N2C1` [PP1092], for which the “NRAS /KRAS” value in experiment [1] was “A (a compound having 10 or more and less than 20 is denoted as A)”. Moreover, the “HRAS /KRAS” value at HRAS wild-type protein was “A (a compound having 10 or more and less than 20 is denoted as A)”. The same compound had a pIC50 in experiment [2] of 7.80.

Take `CCO[C@@H]1C[C@H]2C(=O)NC3(CCC3)C(=O)N(C)[C@@H](C3CCCC3)C(=O)N[C@H](C(=O)N(C)C)CC(=O)N(C)[C@@H](CC)C(=O)N[C@@H]([C@@H](C)CC)C(=O)N(C)CC(=O)N(C)[C@H]3C/C=C\CCN(C3=O)[C@@H](Cc3ccc(C(F)(F)F)cc3)C(=O)N(C)CC(=O)N[C@@H](CCc3cc(F)c(C(F)(F)F)c(F)c3)C(=O)N2C1` [PP1094]: the “NRAS /KRAS” value in experiment [1] is “A (a compound having 10 or more and less than 20 is denoted as A)”. Also, the “HRAS /KRAS” value at HRAS wild-type protein was “B (a compound having 3 or more and less than 10 is denoted as B)”. This compound showed a pIC50 in experiment [2] of 6.11.

On to `CCO[C@@H]1C[C@H]2C(=O)NC3(CCC3)C(=O)N(C)[C@@H](C3CCCC3)C(=O)N(C)[C@H](C)CC(=O)N(C)[C@@H](CC)C(=O)N[C@@H]([C@@H](C)CC)C(=O)N(C)CC(=O)N(C)[C@H]3C/C=C\CCN(C3=O)[C@@H](Cc3ccc(C(F)(F)F)cc3)C(=O)N(C)CC(=O)N[C@@H](CCc3cc(F)c(C(F)(F)F)c(F)c3)C(=O)N2C1` [PP1095], for which the “NRAS /KRAS” value in experiment [1] was “B (a compound having 3 or more and less than 10 is denoted as B)”. Also, on HRAS wild-type protein, the “HRAS /KRAS” value is “B (a compound having 3 or more and less than 10 is denoted as B)”. This compound had a pIC50 in experiment [2] of 7.83.

On to `CCO[C@@H]1C[C@H]2C(=O)NC3(CCCC3)C(=O)N(C)[C@@H](C3CCCC3)C(=O)N(C)[C@H](C)CC(=O)N(C)[C@@H](CC(C)C)C(=O)N[C@@H]([C@@H](C)CC)C(=O)N(C)CC(=O)N(C)[C@H]3C/C=C\CCN(C3=O)[C@@H](Cc3ccc(C(F)(F)F)cc3)C(=O)N(C)CC(=O)N[C@@H](CCc3cc(F)c(C(F)(F)F)c(F)c3)C(=O)N2C1` [PP1096], for which the “NRAS /KRAS” value in experiment [1] was “B (a compound having 3 or more and less than 10 is denoted as B)”. Besides, the “HRAS /KRAS” value at HRAS wild-type protein was “B (a compound having 3 or more and less than 10 is denoted as B)”. The same compound gave a pIC50 in experiment [2] of 7.42.

Consider `CCO[C@@H]1C[C@H]2C(=O)NC3(CCC3)C(=O)N(C)[C@@H](C3CCCC3)C(=O)N3CCC[C@@H]3CC(=O)N(C)[C@@H](CC)C(=O)N[C@@H]([C@@H](C)CC)C(=O)N(C)CC(=O)N(C)[C@H]3C/C=C\CCN(C3=O)[C@@H](Cc3ccc(C(F)(F)F)cc3)C(=O)N(C)CC(=O)N[C@@H](CCc3cc(F)c(C(F)(F)F)c(F)c3)C(=O)N2C1` [PP1097], for which the “NRAS /KRAS” value in experiment [1] is “B (a compound having 3 or more and less than 10 is denoted as B)”. Also, at HRAS wild-type protein, the “HRAS /KRAS” value is “B (a compound having 3 or more and less than 10 is denoted as B)”. The same compound gave a negative logarithm of the IC50 (pIC50) in experiment [2] of 7.99.
